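Briefly, cells in 96-well plates were exposed to five compound concentrations for 48 h, and endpoints were estimated by linear interpolation. The concentration for 50% growth inhibition is given as GI50. At the TGI there is no net growth.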
Tested on: P388 leukemia
Experiment: NCI tumour cell line growth inhibition, 48 h

## Cc1cc(-c2ccc(N=Nc3ccc4c(S(=O)(=O)O)cc(S(=O)(=O)O)c(N)c4c3O)c(C)c2)ccc1N=Nc1ccc2c(S(=O)(=O)O)cc(S(=O)(=O)O)c(N)c2c1O
  TGI: > 100 µM

## [C-]#[O+].[Cl][Sn]([Cl])[Cl].[Cl][Sn]([Cl])[Cl].[Pt].c1cnc2c(c1)ccc1cccnc12
  GI50: 2.12 µM
  TGI: 5.68 µM
